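Assay format: 96-well plates, 48-hour exposure. At the GI50, growth is halved.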 Calls of active or inactive are those of the source. Rule as the data show it: active = GI50 up to about 1.1 µM and inactive = higher.
Key:
Assay in all cases: DTP human tumour cell line panel, 48 h
[1] = tested on: MDA-MB-435
[2] = tested on: TK-10
[3] = tested on: HT-29
[4] = tested on: DU-145
[5] = tested on: SK-MEL-2
[6] = tested on: KM12
[7] = tested on: SK-MEL-5
[8] = tested on: MDA-MB-231
[9] = tested on: RXF 393
[10] = tested on: EKVX
[11] = tested on: OVCAR-3
[12] = tested on: HCT-15
[13] = tested on: HCT-116
[14] = tested on: SF-268
[15] = tested on: 786-0
[16] = tested on: SF-295
[17] = tested on: SR
[18] = tested on: SNB-19
[19] = tested on: NCI-H522

Structure (SMILES) | GI50 [1] | GI50 [2] | GI50 [3] | GI50 [4] | GI50 [5] | GI50 [6] | GI50 [7] | GI50 [8] | GI50 [9] | GI50 [10] | GI50 [11] | GI50 [12] [µM] | GI50 [13] | GI50 [14] | GI50 [15] | GI50 [16] | GI50 [17] | GI50 [18] | GI50 [19]
CSC(=O)c1sc(SC)[n+](-c2ccccc2)c1O | 18.7 µM (inactive) | 18.2 µM (inactive) | 20.2 µM (inactive) | 16 µM (inactive) | 22 µM (inactive) | > 10 µM (inactive) | 20.8 µM (inactive) | 11.3 µM (inactive) | 14.5 µM (inactive) | > 10 µM (inactive) | 13.2 µM (inactive) | 21 | 16.8 µM (inactive) | 16.4 µM (inactive) | 17.9 µM (inactive) | 14.9 µM (inactive) | 29.8 µM (inactive) | 19.6 µM (inactive) | 10.4 µM (inactive)
S=c1[nH]nc(Cn2c3ccc(Br)cc3c3nc4ccccc4nc32)o1 | 16.7 µM (inactive) | 69.5 µM (inactive) | 35.6 µM (inactive) | 36.6 µM (inactive) | 8.67 µM (inactive) | 47.3 µM (inactive) | 31.6 µM (inactive) | > 45.4 µM (inactive) | 14.8 µM (inactive) | 71.6 µM (inactive) | 29.9 µM (inactive) | 1.06 | 28.3 µM (inactive) | > 60.5 µM (inactive) | 34.3 µM (inactive) | 42.9 µM (inactive) | 0.568 µM (active) | 53 µM (inactive) | 20.2 µM (inactive)
CCc1c(N=[N+]=[N-])c2ccccc2oc1=O | > 100 µM (inactive) | > 100 µM (inactive) | > 100 µM (inactive) | > 100 µM (inactive) |  | > 100 µM (inactive) |  | > 100 µM (inactive) | > 100 µM (inactive) | 36.3 µM (inactive) | > 100 µM (inactive) | > 100 | > 100 µM (inactive) | > 100 µM (inactive) | > 100 µM (inactive) | > 100 µM (inactive) | > 100 µM (inactive) |  | > 100 µM (inactive)
Clc1sc(Cl)c2c1[C@@H](Cl)C[C@@H]2Br | 40.6 µM (inactive) | > 100 µM (inactive) | > 100 µM (inactive) | > 100 µM (inactive) | > 100 µM (inactive) | 90.6 µM (inactive) | > 100 µM (inactive) | > 100 µM (inactive) | 78.3 µM (inactive) | > 100 µM (inactive) |  | 97.1 | > 100 µM (inactive) | > 100 µM (inactive) | > 100 µM (inactive) | > 100 µM (inactive) | 18.8 µM (inactive) | > 100 µM (inactive) | 30.8 µM (inactive)
O=C1C[C@H](COCc2ccccc2)NC(=O)C[C@H](COCc2ccccc2)NC(=O)C[C@H](COCc2ccccc2)N1 | > 100 µM (inactive) | 18.1 µM (inactive) | > 100 µM (inactive) | > 100 µM (inactive) | 28.2 µM (inactive) | > 100 µM (inactive) | > 100 µM (inactive) | 26.7 µM (inactive) | 11.5 µM (inactive) | > 100 µM (inactive) | 80.5 µM (inactive) | > 100 | 32.4 µM (inactive) | 40.9 µM (inactive) | 16.9 µM (inactive) | 19.2 µM (inactive) | 42.4 µM (inactive) | 18.6 µM (inactive) | > 100 µM (inactive)
CCOC(=O)c1cccc(NC(=O)CI)c1 | 0.263 µM (active) | 0.897 µM (active) | 0.313 µM (active) | 1.76 µM (inactive) | 0.871 µM (active) | 1.67 µM (inactive) | 0.507 µM (active) | 1.31 µM (inactive) | 1.36 µM (inactive) | 1.93 µM (inactive) | 0.391 µM (active) | 0.336 | 0.301 µM (active) | 0.67 µM (active) | 0.169 µM (active) | 2.47 µM (inactive) | 0.0262 µM (active) | 3.54 µM (inactive) | 0.179 µM (active)
CSCCCNC(=O)c1csc([C@@H](CSC)NC(=O)CCNC(=O)[C@@H](NC(=O)OCC(Br)(Br)Br)C(C)O)n1 (some centres not stated) | > 100 µM (inactive) | > 100 µM (inactive) | > 100 µM (inactive) | > 100 µM (inactive) | > 100 µM (inactive) | > 100 µM (inactive) | > 100 µM (inactive) | > 100 µM (inactive) | > 100 µM (inactive) | 75.5 µM (inactive) | > 100 µM (inactive) | > 100 | > 100 µM (inactive) | > 100 µM (inactive) | > 100 µM (inactive) | > 100 µM (inactive) | > 100 µM (inactive) | > 100 µM (inactive) | > 100 µM (inactive)
O=C1Oc2ccccc2C(=O)/C1=C\Nc1nc(-c2ccccc2)cs1 | 7.38 µM (inactive) | 2.21 µM (inactive) | 5.21 µM (inactive) | 15.3 µM (inactive) | 14.3 µM (inactive) | 16.7 µM (inactive) | 2.75 µM (inactive) | 18.9 µM (inactive) | 12.4 µM (inactive) | 19.5 µM (inactive) | 14.3 µM (inactive) |  | 4.95 µM (inactive) | 8.75 µM (inactive) | 5.83 µM (inactive) | 25.9 µM (inactive) | 2.01 µM (inactive) | 19.9 µM (inactive) | 2.31 µM (inactive)
NC(=S)N/N=C1\CCCC1C(O)(C(F)(F)Cl)C(F)(F)Cl (configuration not stated) | > 10 µM (inactive) | > 10 µM (inactive) | > 10 µM (inactive) | > 10 µM (inactive) | > 10 µM (inactive) | > 10 µM (inactive) | 2.01 µM (inactive) | > 10 µM (inactive) | > 10 µM (inactive) | > 10 µM (inactive) | > 10 µM (inactive) | > 10 | > 10 µM (inactive) | > 10 µM (inactive) | > 10 µM (inactive) | > 10 µM (inactive) | > 10 µM (inactive) | > 10 µM (inactive) | > 10 µM (inactive)
CNC(=S)N/N=C(\C)c1ccc(OC)cc1O | > 100 µM (inactive) |  | 0.337 µM (active) | > 100 µM (inactive) | > 100 µM (inactive) | > 100 µM (inactive) | 7.45 µM (inactive) | > 100 µM (inactive) | > 100 µM (inactive) | 82.6 µM (inactive) | > 100 µM (inactive) | 16 | > 100 µM (inactive) | > 100 µM (inactive) | > 100 µM (inactive) | > 100 µM (inactive) | 29.3 µM (inactive) | > 100 µM (inactive) | 2.72 µM (inactive)
CSc1c(C#N)c(N)n(-c2ccc(Cl)cc2)c(=O)c1C#N | > 100 µM (inactive) | > 100 µM (inactive) | > 100 µM (inactive) | > 100 µM (inactive) | > 100 µM (inactive) | > 100 µM (inactive) | > 100 µM (inactive) | > 100 µM (inactive) | > 100 µM (inactive) | > 100 µM (inactive) | > 100 µM (inactive) | > 100 | > 100 µM (inactive) | > 100 µM (inactive) | > 100 µM (inactive) |  | 42.8 µM (inactive) | > 100 µM (inactive) | 27.5 µM (inactive)

From ChEMBL document CHEMBL1201862, “PubChem BioAssay data set” (2004)
